One data set deals with trypsin. The data set can be described thus: Peptide stability assay, trypsin (endopeptidase). In kind it is in vitro ADME. To be noted: recommended buffer, RP-HPLC, n = 3. Here is the method: (§1) Purified avenatides aV1 and S-alkylated aV1 were incubated under the stated conditions and recommended buffer solution. At each time interval, aliquots of samples were taken and RP-UPLC was performed in triplicate.

The subject of another data set is carboxypeptidase A. The experiment in a line: Exoproteolytic enzyme stability assay, carboxypeptidase A. To be noted: carboxypeptidase A (isolated exopeptidase); 200 μM peptide, 100 nM carboxypeptidase A, 50 mM Tris-HCl, 100 mM sodium chloride, 37°C, 4 h (time-points 0 and 6 h); quenched with 1 M HCl; RP-UPLC; n = 3; read-out: Peptide retained after carboxypeptidase A treatment. In kind it is in vitro ADME. Here is the method: as §1
Purified avenatide aV1 (200 μM) were added to 50 mM Tris-HCl, 100 mM sodium chloride with 100 nM carboxypeptidase A or 20 mM tricine and 0.05% bovine serum albumin (pH 8.0) with 20 U/mL aminopeptidase I. The mixture was incubated in a 37°C water bath for 4 h. At each time-point ([…]), 20 μL of the treated sample was aliquoted and quenched with 5 μL 1 M hydrochloric acid. RP-UPLC was performed to determine the amounts of avenatide aV1 present before and after treatment.

Data set [1] concerns Curvularia lunata (CICC 40301). The experiment in a line: Anti-fungal microbroth dilution assay. Format: cell-based. The settings on record: 1 × 10^5 cells/mL spores in half-strength potato dextrose broth, 25°C, 24 h, crystal violet, absorbance 570 nm, read-out: IC50 against C. lunata. Here is the method:
(§2) Four phyto-pathogenic fungal strains from the China Center of Industrial Culture Collection (Beijing, China) were used to examine the anti-fungal activity of avenatide aV1: Alternaria alternata (CICC 2465), Curvularia lunata (CICC 40301), Fusarium oxysporum (CICC 2532), and Rhizoctonia solani (CICC 40259). Fungal strains were grown on potato dextrose agar plates at 25°C.
(§3) The half maximal inhibitory concentration levels (IC50) of avenatide aV1 were determined using a microbroth dilution assay ([Loo et al., 2021b]). Fungal spores were harvested from a 4-day old, actively growing fungal plate and suspended in half-strength potato dextrose broth. In the 96-well microplate, 1 × 10^5 cells/mL of spore suspension was mixed with peptides at varying concentrations and incubated at 25°C for 24 h. The cells were then fixed with 100% methanol for 15 min. Staining was done for 45 min with crystal violet dye. MilliQ water was used to remove excess dye. Elution was performed using 1:1 (v/v) ethanol/0.1 N HCl. Absorbance was measured at 570 nm.
On the technique in general: In broth dilution the organism is exposed to a series of concentrations in liquid medium.

The test system of data set [2] is Fusarium oxysporum (CICC 2532). The data set can be described thus: Anti-fungal microbroth dilution assay. In kind it is cell-based. To be noted: 1 × 10^5 cells/mL spores in half-strength potato dextrose broth, 25°C, 24 h, crystal violet, absorbance 570 nm, read-out: IC50 against F. oxysporum. Here is the method: as §2, §3

Structures are written as SMILES. Where a SMILES comes first, the peptide text is derived from it. Bridges are numbered along the chain shown (N, C = ends). Where only a bound is given, the exact number is not on record here.

Take `CC(C)C[C@@H]1NC(=O)CNC(=O)[C@@H]2CSSC[C@@H]3NC(=O)[C@@H]4CCCN4C(=O)[C@H](CO)NC(=O)[C@H](CO)NC(=O)[C@H](CO)NC(=O)[C@H](CO)NC(=O)[C@@H](NC(=O)[C@H](C)N)CSSC[C@H](NC(=O)[C@H](CSSC[C@@H](C(=O)NCC(=O)N[C@@H](CO)C(=O)NCC(=O)N[C@H]4CSSC[C@@H](C(=O)N[C@H](C(=O)NCC(=O)N[C@@H](C)C(=O)O)[C@@H](C)O)NC(=O)[C@@H]5CCCN5C(=O)CNC(=O)[C@H](CO)NC(=O)[C@H](CCC(N)=O)NC4=O)NC(=O)[C@H](Cc4ccc(O)cc4)NC(=O)[C@H](CC(=O)O)NC(=O)CNC(=O)CNC1=O)NC(=O)[C@H](CCC(N)=O)NC(=O)[C@H](CC(N)=O)NC(=O)CNC(=O)[C@@H]1CCCN1C3=O)C(=O)N[C@@H](CO)C(=O)N[C@@H](CCCCN)C(=O)N[C@@H](Cc1c[nH]c3ccccc13)C(=O)NCC(=O)N[C@@H](Cc1ccc(O)cc1)C(=O)N2` [avenatide aV1] (H-ACSSSSPCPGNQCCSKWGYCGLGGDYCGSGCQSGPCTGA-OH; disulfide 2-14, 8-20, 13-27, 31-36): the “Peptide retained after trypsin treatment” value with trypsin was over 80%. The remaining at 4 h, 200 μM in the data set with carboxypeptidase A was over 80%. The IC50 – broadly, the midpoint of a concentration-inhibition curve – in data set [1] came to 74 µM; in data set [2] it was 53 µM.

For the origin of these results see article PMC9127739, “Hololectin Interdomain Linker Determines Asparaginyl Endopeptidase-Mediated Maturation of Antifungal Hevein-Like Peptides in Oats” (Frontiers in Plant Science, 2022).
